Active and inactive are the calls of the source. The rule behind the calls is not given here.
Columns and labels:
[1] = target: T1, Interleukin-8 receptors, CXCR1/CXCR2 (Homo sapiens) (UniProt P25025+P25024); assay: Inhibition of CXCL8-induced chemotaxis of human polymorphonuclear cells at 10e-8 M: not active; type: functional
[2] = target: T1, Interleukin-8 receptors, CXCR1/CXCR2 (Homo sapiens); assay: Inhibition of CXCL8-induced chemotaxis of human polymorphonuclear cells at 10e-6 M: not active; type: functional
[3] = target: T1, Interleukin-8 receptors, CXCR1/CXCR2 (Homo sapiens); assay: Inhibition of interleukin-8 induced chemotaxis of human polymorphonuclear cells at 10 nM
[4] = target: T2, Interleukin-8 receptors, CXCR1/CXCR2 (Homo sapiens, UniProt P25025+P25024); assay: Inhibition of CXCL8-induced chemotaxis in human polymorphonuclear cells; type: functional
T2 sequence (P25025 whole entry): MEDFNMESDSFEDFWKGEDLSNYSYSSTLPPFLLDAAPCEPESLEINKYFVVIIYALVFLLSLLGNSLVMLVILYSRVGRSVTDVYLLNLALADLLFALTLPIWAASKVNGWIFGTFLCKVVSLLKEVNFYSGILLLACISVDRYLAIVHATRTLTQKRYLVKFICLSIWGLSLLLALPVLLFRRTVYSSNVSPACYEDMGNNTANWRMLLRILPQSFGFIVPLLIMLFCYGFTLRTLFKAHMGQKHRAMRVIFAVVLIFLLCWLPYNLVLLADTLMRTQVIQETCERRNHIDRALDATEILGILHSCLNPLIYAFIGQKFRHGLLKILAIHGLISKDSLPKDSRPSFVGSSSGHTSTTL
T2 sequence (P25024 whole entry): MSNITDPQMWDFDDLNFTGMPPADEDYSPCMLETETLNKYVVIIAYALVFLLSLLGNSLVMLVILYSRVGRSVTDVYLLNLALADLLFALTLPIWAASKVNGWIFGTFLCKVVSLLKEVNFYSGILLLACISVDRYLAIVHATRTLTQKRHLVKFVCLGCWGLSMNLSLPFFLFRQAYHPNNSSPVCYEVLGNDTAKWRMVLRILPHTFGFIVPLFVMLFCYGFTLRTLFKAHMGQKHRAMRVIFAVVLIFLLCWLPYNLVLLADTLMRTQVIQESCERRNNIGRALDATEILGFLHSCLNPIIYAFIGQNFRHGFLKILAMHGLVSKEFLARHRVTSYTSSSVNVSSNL

| SMILES | inhibition [1] | other results |
| --- | --- | --- |
| CC(C(=O)O)c1ccc(-c2ccccc2)cc1 (centres undefined) | inactive | – |
| CCCCc1cccc(C(C)C(=O)O)c1 (centres undefined) | inactive | – |
| CC(C)Cc1ccc([C@@H](C)C(=O)NS(=O)(=O)Cc2cccnc2)cc1 | inactive | – |
| CC(C(=O)NS(C)(=O)=O)c1ccc2c(c1)[nH]c1ccc(Cl)cc12 (centres undefined) | – | inhibition [2]: inactive |
| CC(C)Cc1ccc([C@@H](C)C(=O)Nc2ccccc2)cc1 | – | inhibition [3]: 30% |
| CCS(=O)(=O)NC(=O)[C@H](C)c1ccc(CC(C)C)cc1 | – | inhibition [3]: 40% |
| CC(=O)c1cccc(C(C)C(=O)O)c1 (centres undefined) | inactive | – |
| CCNC(=O)[C@H](C)c1ccc(CC(C)C)cc1 | – | inhibition [3]: 26% |
| CC(C(=O)O)c1cccc(Cc2ccccc2)c1 (centres undefined) | – | inhibition [3]: 30% |
| CCC(C)c1cccc(C(C)C(=O)O)c1 (centres undefined) | – | inhibition [3]: 50% |
| CNC(=O)[C@H](C)c1ccc(CC(C)C)cc1 | – | inhibition [3]: 40% |
| CC(C(=O)O)c1ccc(CC2CCCCC2)cc1 (centres undefined) | inactive | – |
| CC(C)Cc1ccc([C@@H](C)C(=O)NS(=O)(=O)CCCN2C(=O)c3ccccc3C2=O)cc1 | inactive | – |
| C/C=C/c1cccc(C(C)C(=O)O)c1 (centres undefined) | inactive | – |
| CC(C)Oc1ccc(C(C)C(=O)O)cc1 (centres undefined) | – | inhibition [3]: 38% |
| CC(C)Cc1ccc([C@@H](C)C(=O)NS(=O)(=O)Cc2ccc(Cl)cc2)cc1 | inactive | – |
| CC(C(=O)O)c1cccc(C(=O)O)c1 (centres undefined) | inactive | – |
| C[C@H](C(=O)NS(C)(=O)=O)c1ccc(-c2ccccc2)c(F)c1 | – | inhibition [3]: 19% |
| CC(C)Cc1cccc(C(C)C(=O)O)c1 (centres undefined) | inactive | – |
| C[C@@H](C(=O)NS(C)(=O)=O)c1ccc(-c2ccccc2)c(F)c1 | – | inhibition [3]: 30% |
| CC(C(=O)O)c1ccc(-c2cccs2)cc1 (centres undefined) | inactive | – |
| CC(C(=O)O)c1ccc(O)cc1 (centres undefined) | inactive | – |
| CC(C(=O)O)c1ccc(C(C)(C)C)cc1 (centres undefined) | inactive | – |
| CC(C(=O)O)c1ccc(Cc2ccccc2)cc1 (centres undefined) | inactive | – |
| CC(C)c1ccc(C(C)C(=O)O)cc1 (centres undefined) | – | inhibition [3]: 32% |
| CONC(=O)[C@H](C)c1ccc(CC(C)C)cc1 | – | IC50 [4]: 1.8 nM |
| CC(C)Cc1ccc([C@@H](C)C(=O)NS(=O)(=O)c2ccccc2)cc1 | inactive | – |

More lines, main results first:

| inhibition [1] | SMILES | other results |
| --- | --- | --- |
| inactive | CC(C)Cc1ccc([C@@H](C)C(=O)N2CCCCC2)cc1 | – |
| inactive | CC(C)Cc1ccc([C@@H](C)C(=O)NC2CCN(C)C2)cc1 (some centres undefined) | – |
| inactive | COC(=O)[C@@H](C)NC(=O)[C@H](C)c1ccc(CC(C)C)cc1 | – |
| inactive | CC(C)Cc1ccc([C@@H](C)C(=O)NCCCCCO)cc1 | – |
| inactive | CC(C)Cc1ccc([C@@H](C)C(=O)NCCCN)cc1 | – |
| inactive | CC(C)Cc1ccc([C@@H](C)C(=O)NC2CCOCC2)cc1 | – |
| inactive | CC(C)Cc1ccc([C@@H](C)C(=O)NCCCC(=O)O)cc1 | – |
| inactive | CC(C)Cc1ccc([C@@H](C)C(=O)NCCC(=O)O)cc1 | – |
| inactive | CC(C)Cc1ccc([C@@H](C)C(=O)NCCC[N+](C)(C)C)cc1 | – |
| inactive | CC(C)Cc1ccc([C@@H](C)C(=O)NC(C)C(=O)O)cc1 (single isomer, unassigned) | – |
| inactive | CC(C)Cc1ccc([C@@H](C)C(=O)N[C@H](CS)C(=O)O)cc1 | – |
| inactive | COC(=O)C(C)c1ccc(CC(C)C)cc1 (centres undefined) | – |
| inactive | CC(C)Cc1ccc([C@@H](C)C(=O)NS(=O)(=O)CCCN)cc1 | – |
| inactive | CC(C)Cc1ccc([C@@H](C)C(=O)NC2CCOC2)cc1 (some centres undefined) | – |
| inactive | CC(C)Cc1ccc([C@@H](C)C(=O)N(C)C)cc1 | – |
| inactive | CC(C)Cc1ccc([C@@H](C)C(=O)NS(=O)(=O)C(F)(F)F)cc1 | – |
| inactive | COC(=O)CNC(=O)[C@H](C)c1ccc(CC(C)C)cc1 | – |

Reference: ChEMBL document CHEMBL1145151, “2-Arylpropionic CXC chemokine receptor 1 (CXCR1) ligands as novel noncompetitive CXCL8 inhibitors” (J Med Chem, 2005)
